Data set [1] is described as follows: Lipophilicity, log P of the compound. Type of data set: physicochemical. The following applies: octanol/water.
Data set [2] deals with A-431. The data set is described as follows: Anticancer activity against human A431 cells after 72 hrs by MTT assay. Conditions: A-431, 72 h. On the technique in general: Tetrazolium assays rely on reduction of a dye to a coloured formazan, in cell work by metabolically active cells.
The test system of data set [3] is HL-60. The data set is described as follows: Anticancer activity against human HL60 cells after 48 hrs by MTT assay. Conditions: HL-60, 48 h.
The test system of data set [4] is K562. In words: Anticancer activity against human K562 cells after 48 hrs by MTT assay. The following applies: K562, 48 h.
The subject of data set [5] is HepG2. In words: Anticancer activity against human HepG2 cells after 72 hrs by MTT assay. The following applies: HepG2, 72 h.
The test system of data set [6] is SK-OV-3. In words: Anticancer activity against human SKOV3 cells after 72 hrs by MTT assay. The following applies: SK-OV-3, 72 h.

The structures appear in SMILES notation. ≈ marks a conversion by molar mass, not a printed value.

For orientation: logP means the decadic logarithm of the partition coefficient of the neutral form, usually between octanol and water. Read a high logP as a more lipophilic compound. Usually IC50 stands for the concentration at which inhibition is half-maximal. Higher therefore signals weaker potency in that assay. `N#Cc1c(F)c(F)c2c(C(=O)c3ccc(Cl)cc3)c3n(c(=N)c2c1F)CCCN3` gave a logP in data set [1] of 3.44. Besides, the half-maximal inhibitory concentration (IC50) was 4.3 mg/L (≈ 10.3 µM) in data set [2]; 4.7 mg/L (≈ 11.3 µM) in data set [3]; 0.5 mg/L (≈ 1.2 µM) in data set [4]; 8.4 mg/L (≈ 20.2 µM) in data set [5]; 15.1 mg/L (≈ 36.2 µM) in data set [6].

`N#Cc1c(F)c(F)c2c(C(=O)c3ccccc3)c3n(c(=N)c2c1F)CCCN3`: the logP in data set [1] was 2.71. Also, the IC50 in data set [2] is 2.4 mg/L (≈ 6.28 µM); in data set [3] it was 0.3 mg/L (≈ 0.785 µM); in data set [4] it was 0.02 mg/L (≈ 0.0523 µM); in data set [5] it was 1.1 mg/L (≈ 2.88 µM); in data set [6] it was 16.4 mg/L (≈ 42.9 µM).

`Cc1ccc(C(=O)c2c3n(c(=N)c4c(F)c(C#N)c(F)c(F)c24)CCCN3)cc1`: in data set [1], the log partition coefficient (logP) was 3.21. Besides, the IC50 in data set [2] turned out to be 2.1 mg/L (≈ 5.3 µM); in data set [3] it was 4.7 mg/L (≈ 11.9 µM); in data set [4], 0.7 mg/L (≈ 1.77 µM); in data set [5] it was 2.4 mg/L (≈ 6.05 µM); in data set [6], 33.9 mg/L (≈ 85.5 µM).

As for `N#Cc1c(F)c(F)c2c(C(=O)c3ccccc3)c3n(c(=N)c2c1F)CCO3`, in data set [1], the logP came out at 2.57. The IC50 in data set [2] is 0.3 mg/L (≈ 0.812 µM); in data set [3], 0.008 mg/L (≈ 0.0217 µM); in data set [4] it was 0.0002 mg/L (≈ 0.000542 µM); in data set [5] it was 0.1 mg/L (≈ 0.271 µM); in data set [6], 0.2 mg/L (≈ 0.542 µM).

As for `COc1ccc(C(=O)c2c3n(c(=N)c4c(F)c(C#N)c(F)c(F)c24)CCN3)cc1`, in data set [1], the lipophilicity (logP) turned out to be 2.62. In addition, the 50% inhibitory concentration (IC50) is 7.5 mg/L (≈ 18.8 µM) in data set [2], 0.5 mg/L (≈ 1.26 µM) in data set [3], 0.4 mg/L (≈ 1 µM) in data set [4] and 0.9 mg/L (≈ 2.26 µM) in data set [5].

In the case of `N#Cc1c(F)c(Cl)c2c(C(=O)c3ccc(Cl)cc3)c3n(c(=N)c2c1F)CCCN3`, in data set [1], the lipophilicity (logP) was found to be 4.08. Also, the IC50 was found to be 2.8 mg/L (≈ 6.46 µM) in data set [2]; 0.2 mg/L (≈ 0.462 µM) in data set [3]; 0.3 mg/L (≈ 0.692 µM) in data set [4]; 2.1 mg/L (≈ 4.85 µM) in data set [5]; 17.1 mg/L (≈ 39.5 µM) in data set [6].

`COc1ccc(C(=O)c2c3n(c(=N)c4c(F)c(C#N)c(F)c(Cl)c24)CCO3)cc1`: in data set [1], the logP worked out at 3.21. Also, the half-inhibitory concentration (IC50) is 2.1 mg/L (≈ 5.05 µM) in data set [2]; 1 mg/L (≈ 2.41 µM) in data set [3]; 0.5 mg/L (≈ 1.2 µM) in data set [4]; 2 mg/L (≈ 4.81 µM) in data set [5]; 23.8 mg/L (≈ 57.2 µM) in data set [6].

The compound `Cc1ccc(C(=O)c2c3n(c(=N)c4c(Cl)c(C#N)c(Cl)c(Cl)c24)CCCN3)cc1` gave a lipophilicity (logP) in data set [1] of 4.61. For the same compound, the concentration for half-maximal inhibition (IC50) in data set [2] is above 1000 mg/L; in data set [3], 58.2 mg/L (≈ 131 µM); in data set [4], 9.3 mg/L (≈ 20.9 µM); in data set [5] it was 277 mg/L (≈ 621 µM); in data set [6], 826 mg/L (≈ 1850 µM).

For `N#Cc1c(Cl)c(Cl)c2c(C(=O)c3ccc(Cl)cc3)c3n(c(=N)c2c1Cl)CCN3`, the log partition coefficient (logP) in data set [1] came out at 4.76. Besides, the 50% inhibitory concentration (IC50) stood at 20.3 mg/L (≈ 44.9 µM) in data set [2]; 2.6 mg/L (≈ 5.75 µM) in data set [3]; 2.4 mg/L (≈ 5.31 µM) in data set [4]; 37.6 mg/L (≈ 83.2 µM) in data set [5]; 31.4 mg/L (≈ 69.4 µM) in data set [6].

In the case of `COc1ccc(C(=O)c2c3n(c(=N)c4c(F)c(C#N)c(F)c(Cl)c24)CCCN3)cc1`, the log partition coefficient (logP) in data set [1] stood at 3.34. Also, the IC50 was found to be 2 mg/L (≈ 4.66 µM) in data set [2]; 0.5 mg/L (≈ 1.17 µM) in data set [3]; 0.07 mg/L (≈ 0.163 µM) in data set [4]; 0.8 mg/L (≈ 1.87 µM) in data set [5]; 26.8 mg/L (≈ 62.5 µM) in data set [6].

For the compound `COc1ccc(C(=O)c2c3n(c(=N)c4c(Cl)c(C#N)c(Cl)c(Cl)c24)CCCN3)cc1`, the logP in data set [1] was determined as 4.1. The IC50 in data set [2] was 56.9 mg/L (≈ 123 µM); in data set [3], 4.4 mg/L (≈ 9.53 µM); in data set [4], 1.4 mg/L (≈ 3.03 µM); in data set [5] it was 400 mg/L (≈ 866 µM); in data set [6], 67.2 mg/L (≈ 146 µM).

In data set [1], `CCOC(=O)c1c2n(c(=N)c3c(F)c(C#N)c(F)c(Cl)c13)CCN2` returned a log partition coefficient (logP) of 2.68. The IC50 was 2.2 mg/L (≈ 6.24 µM) in data set [2]; 0.003 mg/L (≈ 0.00851 µM) in data set [3]; 0.0008 mg/L (≈ 0.00227 µM) in data set [4]; 1.5 mg/L (≈ 4.25 µM) in data set [5]; 0.05 mg/L (≈ 0.142 µM) in data set [6].

With `COc1ccc(C(=O)c2c3n(c(=N)c4c(F)c(C#N)c(F)c(Cl)c24)CCN3)cc1`, the logP in data set [1] stood at 3.26. The IC50 was 1.9 mg/L (≈ 4.58 µM) in data set [2], 0.2 mg/L (≈ 0.482 µM) in data set [3], 0.3 mg/L (≈ 0.723 µM) in data set [4] and 1.2 mg/L (≈ 2.89 µM) in data set [5].

In data set [1], `N#Cc1c(Cl)c(Cl)c2c(C(=O)c3ccccc3)c3n(c(=N)c2c1Cl)CCCN3` came in with a lipophilicity (logP) of 4.11. Moreover, the half-maximal inhibitory concentration (IC50) in data set [2] is 10.1 mg/L (≈ 23.4 µM); in data set [3], 10.7 mg/L (≈ 24.8 µM); in data set [4], 1.2 mg/L (≈ 2.78 µM); in data set [5], 9.3 mg/L (≈ 21.5 µM); in data set [6] it was 51.2 mg/L (≈ 119 µM).

Take `N#Cc1c(Cl)c(Cl)c2c(C(=O)c3ccccc3)c3n(c(=N)c2c1Cl)CCN3`: in data set [1], the logP was 4.03. Besides, the half-inhibitory concentration (IC50) in data set [2] came to 3.4 mg/L (≈ 8.14 µM); in data set [3], 0.8 mg/L (≈ 1.92 µM); in data set [4] it was 0.7 mg/L (≈ 1.68 µM); in data set [5], 4.4 mg/L (≈ 10.5 µM); in data set [6] it was 19.7 mg/L (≈ 47.2 µM).

`N#Cc1c(F)c(Cl)c2c(C(=O)c3ccccc3)c3n(c(=N)c2c1F)CCO3` returned a log partition coefficient (logP) in data set [1] of 3.21. Also, the half-inhibitory concentration (IC50) in data set [2] came out at 2.3 mg/L (≈ 5.96 µM); in data set [3] it was 1.5 mg/L (≈ 3.89 µM); in data set [4], 1.7 mg/L (≈ 4.41 µM); in data set [5], 3.6 mg/L (≈ 9.33 µM); in data set [6], 29.2 mg/L (≈ 75.7 µM).

Compound `CCOC(=O)c1c2n(c(=N)c3c(Cl)c(C#N)c(Cl)c(Cl)c13)CCN2` returned a logP in data set [1] of 3.44. In addition, the concentration for half-maximal inhibition (IC50) in data set [2] is 40.6 mg/L (≈ 105 µM); in data set [3], 1.7 mg/L (≈ 4.41 µM); in data set [4], 1.6 mg/L (≈ 4.15 µM); in data set [5], 38.2 mg/L (≈ 99.1 µM); in data set [6], 50.1 mg/L (≈ 130 µM).

For `COc1ccc(C(=O)c2c3n(c(=N)c4c(Cl)c(C#N)c(Cl)c(Cl)c24)CCN3)cc1`, the logP in data set [1] is 4.02. In addition, the IC50 amounted to 2.1 mg/L (≈ 4.69 µM) in data set [2], 0.3 mg/L (≈ 0.67 µM) in data set [3], 0.7 mg/L (≈ 1.56 µM) in data set [4] and 11.3 mg/L (≈ 25.2 µM) in data set [5].

Compound `N#Cc1c(Cl)c(Cl)c2c(C(=O)c3ccc(Cl)cc3)c3n(c(=N)c2c1Cl)CCCN3` came in with a log partition coefficient (logP) in data set [1] of 4.84. Besides, the IC50 in data set [2] was 8 mg/L (≈ 17.2 µM); in data set [3], 4.4 mg/L (≈ 9.44 µM); in data set [4], 1.2 mg/L (≈ 2.57 µM); in data set [5], 30 mg/L (≈ 64.4 µM); in data set [6], 52.2 mg/L (≈ 112 µM).

In data set [1], `N#Cc1c(Cl)c(Cl)c2c(C(=O)c3ccccc3)c3n(c(=N)c2c1Cl)CCO3` showed a log partition coefficient (logP) of 3.97. Also, the IC50 in data set [2] stood at 14.5 mg/L (≈ 34.6 µM); in data set [3] it was 6 mg/L (≈ 14.3 µM); in data set [4] it was 2.2 mg/L (≈ 5.25 µM); in data set [5], 0.3 mg/L (≈ 0.717 µM); in data set [6] it was 17.4 mg/L (≈ 41.6 µM).

Compound `COc1ccc(C(=O)c2c3n(c(=N)c4c(F)c(C#N)c(F)c(F)c24)CCO3)cc1` registered a logP in data set [1] of 2.57. Besides, the IC50 came to 1.5 mg/L (≈ 3.76 µM) in data set [2]; 0.1 mg/L (≈ 0.25 µM) in data set [3]; 1.8 mg/L (≈ 4.51 µM) in data set [4]; 0.5 mg/L (≈ 1.25 µM) in data set [5]; 0.2 mg/L (≈ 0.501 µM) in data set [6].

`CC(=O)c1c2n(c(=N)c3c(F)c(C#N)c(F)c(F)c13)CCN2` showed a logP in data set [1] of 1.03. Also, the IC50 in data set [2] worked out at 4.4 mg/L (≈ 14.4 µM); in data set [3], 0.02 mg/L (≈ 0.0653 µM); in data set [4], 0.1 mg/L (≈ 0.327 µM); in data set [5], 3.1 mg/L (≈ 10.1 µM); in data set [6], 0.02 mg/L (≈ 0.0653 µM).

Compound `N#Cc1c(F)c(F)c2c(C(=O)c3ccc(Cl)cc3)c3n(c(=N)c2c1F)CCN3` showed a log partition coefficient (logP) in data set [1] of 3.36. In addition, the IC50 came out at 4.9 mg/L (≈ 12.2 µM) in data set [2]; 0.5 mg/L (≈ 1.24 µM) in data set [3]; 1 mg/L (≈ 2.48 µM) in data set [4]; 17.7 mg/L (≈ 43.9 µM) in data set [5]; 34.5 mg/L (≈ 85.7 µM) in data set [6].

As to `Cc1ccc(C(=O)c2c3n(c(=N)c4c(F)c(C#N)c(F)c(Cl)c24)CCCN3)cc1`, the logP in data set [1] is 3.85. The 50% inhibitory concentration (IC50) in data set [2] is 27.5 mg/L (≈ 66.6 µM); in data set [3], 14.6 mg/L (≈ 35.4 µM); in data set [4], 2.3 mg/L (≈ 5.57 µM); in data set [5], 24.6 mg/L (≈ 59.6 µM); in data set [6], 76.4 mg/L (≈ 185 µM).

(Values after ChEMBL document CHEMBL1759888, “Biological evaluation of polyhalo 1,3-diazaheterocycle fused isoquinolin-1(2H)-imine derivatives” (Eur J Med Chem, 2011).)
